Source: US10813904B2, “Small molecule anticancer agents” (University of Florida Research Foundation, Incorporated, priority 2017, dated 2020)
“Also recorded” adds a separate entry of the source.

Experiments:
Assay type in all cases: cell-based
[1] = tested on: MDA-MB-468 cells; experiment: Immunoblot analysis of MDA-MB-468 cell extracts; settings: for ER stress response / UPR activation / HER3 levels / Akt phosphorylation / PARP cleavage (cell death): 2-DOG 4 mM; for ER stress response / UPR activation / Akt phosphorylation / PARP cleavage (cell death): DTDO 20 μM; for ATF4 and CHOP expression: compared with 20 μM RBF3
Description: (§1) The following cell lines were purchased from American Type Culture Collection (ATCC) (Manassas, Va.): MDA-MB-468, BT474, T47D, SKBR3, MDA-MB-231, HCC1954, HEK 293, TSC2-Ang1, and BxPC3. The HCI-012 cell line was derived from the HCI-012 Patient-Derived Xenograft tumor line provided by Dr. Alana Welm using conditional cell reprogramming. Wild type and eIF2α[S51A] homozygous knock-in Mouse Embryo Fibroblasts (MEFs) were described previously.
(§2) Cells were grown in Dulbecco's modified Eagle's medium (GE Healthcare Life Sciences Logan, Utah) supplemented with 10% fetal bovine serum (10% FBS-DMEM) in a humidified 37° C. incubator with 5% CO2. Cell lysates were prepared using a buffer containing 1% Triton X100, 20 mM HEPES (pH 7.4), 1 mM EDTA, 1 mM EGTA, 0.1% 3-mercaptoethanol, 5% glycerol, 10 nM microcystin, 200 μM Na3VO4 and 40 mM Na2H2P2O7 as described previously.
(§3) Immunoblot analysis was carried out using primary antibodies purchased from Santa Cruz Biotechnology (Dallas, Tex.) [Actin, sc-1616-R; ERK, sc-93; JNK, sc-572; P-JNK, sc-6254; Src, sc-18; EGFR, sc-03; GRP78, sc-13539; Phosphotyrosine (PY99), sc-7020], Cell Signaling Technology (Beverly, Mass.) [Akt, #4691; P-Akt[T308], #13038; P-Akt[S473], #9271; ATF4, #11815; CHOP, #2895; P-Src[Y527], #2105; EGFR, #4267; HER2, #2165; HER3, #4754; Calnexin, #2679; #13024; P-Erk, #9101; IRE1α, #3294; XBP1s, #12782; PARP, #9532; PDI, #3501; PERK, #5683; S6, #2212; P-S6, #2211; P-Src[Y416], #6943], BD Transduction Laboratories (San Jose, Calif.) [PAI-1, 612024], Millipore (Temecula, Calif.) [anti-phosphotyrosine (4G10), 05-321], and Sigma-Aldrich (St. Louis, Mo.) [anti-FLAG (M2), F3165]. To quantify immunoblot results, bands were analyzed using ImageJ (imagej.nih.gov/ij/) and each band was normalized to the corresponding Actin loading control band.

[2] = tested on: MDA-MB-468 cells; experiment: MTT cell viability assay, MDA-MB-468; settings: 72 hours, increasing concentrations
Description: (§4) Cell viability was evaluated using MTT (3-(4,5-dimethylthiazol-2-yl)-2,5-diphenyltetrazolium bromide) assays carried out based on the manufacturer's instructions (kit CGD1, Sigma-Aldrich, St. Louis, Mo.)

[3] = tested on: BT474 cells; experiment: Immunoblot analysis of BT474 cell extracts
Description: as §1, §2, §3

[4] = tested on: BT474 cells; experiment: MTT cell viability assay, BT474; settings: 72 hours
Description: as §4

[5] = tested on: MDA-MB-468 or BT474 cells; experiment: Immunoblot analysis, MDA-MB-468 or BT474 cells (text does not separate the lines); settings: for DDA activation of the ER stress response when protein synthesis is inhibited: 20 μM RBF3 with 20 μM CHX or 5 μg/ml Puromycin
Description: as §2, §3

[6] = tested on: XBP1 mRNA splicing in MDA-MB-468 cells; experiment: RT-PCR of XBP1 mRNA splicing; settings: 24 hours; RBF3 20 μM, DTT 2 mM
Description: RNA was isolated from MDA-MB-468 and BT474 cells with Trizol Reagent (Invitrogen) according to the manufacturer's instructions, and reverse transcribed to cDNA under the following conditions: 25° C. for 10 min, 42° C. for 30 min, and 95° C. for 5 min. PCR was performed using XBP1 and β-Actin primers. The primers used to amplify XBP1 are as follows: Forward: […] and Reverse: […]. The primers used to amplify (3-Actin are as follows: Forward: […] and Reverse: […]. Reactions were performed as follows: 96° C. for 5 min followed by 35 cycles of 95° C. for 45 sec, 60° C. for 1 min, and 72° C. for 30 sec. Reaction products were visualized on 3% agarose gels.

[7] = tested on: Mouse Embryo Fibroblasts (MEFs); experiment: Immunoblot analysis of Mouse Embryo Fibroblasts; settings: 24 hours, thapsigargin 400 nM, tunicamycin 500 ng/ml; for Akt phosphorylation, wild type MEFs / ER stress response / UPR, wild type MEFs / PARP cleavage, wild type MEFs: RBF3 20 μM, DTT 5 mM
Description: as §1, §2, §3

[8] = tested on: HCC1954 cells; experiment: Immunoblot analysis of HCC1954 cells; settings: 24 hour; 20 μM RBF3, 20 μM Lapatinib
[9] = tested on: T47D cells; experiment: Immunoblot analysis of T47D stable cell lines (vector, EGFR or HER2 overexpressing); settings: 20 μM NSC624205, 24 hours
Description: Recombinant retroviruses were prepared and used to produce stable cell lines as described previously. Retroviral vectors encoding EGFR (plasmid 11011, [68]) and HER2 (plasmid 40978 [69]) were from Addgene (Cambridge, Mass.).
Cells were grown in Dulbecco's modified Eagle's medium (GE Healthcare Life Sciences Logan, Utah) supplemented with 10% fetal bovine serum (10% FBS-DMEM) in a humidified 37° C. incubator with 5% CO2. Cell lysates were prepared using a buffer containing 1% Triton X100, 20 mM HEPES (pH 7.4), 1 mM EDTA, 1 mM EGTA, 0.1% 3-mercaptoethanol, 5% glycerol, 10 nM microcystin, 200 μM Na3VO4 and 40 mM Na2H2P2O7 as described previously. […]

[10] = increasing concentration, 24 hours (FIG. 5B)
[11] = RBF3 20 μM, thapsigargin 400 nM, DTT 2 mM
[12] = thapsigargin 400 nM, tunicamycin 500 ng/ml, DTT 2 mM
[13] = 24 hours, RBF3 20 μM, 2-DOG 4 mM
[14] = 24 hours, RBF3 20 μM, thapsigargin 400 nM
[15] = 2.5 μM Gefitinib or Lapatinib, 24 hours

Molecule: O=C(CCSSCCCCS(=O)[O-])OCC(COC(=O)CCSSCCCCS(=O)[O-])(COC(=O)CCSSCCCCS(=O)[O-])COC(=O)CCSSCCCCS(=O)[O-].[Na+].[Na+].[Na+].[Na+] (centres unmarked) [PEMP-DDA]
- Akt phosphorylation, comparison of bi-, tri- and tetravalent DDAs [1, 10]: more than RBF3 or Bn-DDA
- HER3 levels, comparison of bi-, tri- and tetravalent DDAs [1, 10]: more than RBF3 or Bn-DDA
- cell viability (MTT) [2]: reduced cell viability in a concentration-dependent manner
- HER2 expression, quantified, compared with RBF3 ([3]; same drug concentrations, 24 hours (FIG. 6B)): significantly more than RBF3
- PARP cleavage (cPARP), quantified, compared with RBF3 ([3]; same drug concentrations, 24 hours (FIG. 6C)): significantly more than RBF3
- cell viability (MTT) [4]: reduced BT474 cell viability more than RBF3

Molecule: NCCOB(c1ccccc1)c1ccccc1 [2-APB, 2-aminoethoxydiphenyl borate]
- RBF3-induced downregulation of HER3, Akt dephosphorylation, or PARP cleavage, with 2-APB [5]: did not alter
- RBF3-mediated GRP78 upregulation, with 2-APB [5]: reduced

Molecule: O[C@H](CS)[C@H](O)CS (racemic) [DTT, dithiothreitol]
- ER stress response / UPR activation ([1]; 24 hours, DTT 2 mM): only weakly activated
- GRP78 expression ([1]; 24 hours, RBF3 20 μM, DTT 2 mM): only weakly induces
- HER3 levels ([1]; 24 hours, RBF3 20 μM, DTT 2 mM): less so; also recorded: induces downregulation
- Akt phosphorylation ([1]; 24 hours, RBF3 20 μM, DTT 2 mM): suppresses
- PARP cleavage (cell death) ([1]; 24 hours, RBF3 20 μM, DTT 2 mM): only weakly induces
- EGFR levels ([1]; 24 hours, RBF3 20 μM, thapsigargin 400 nM, tunicamycin 500 ng/ml, DTT 2 mM): induces downregulation
- XBP1s expression [1, 11]: does not upregulate
- ATF4 and CHOP expression [1, 12]: does not upregulate
- IRE1-dependent XBP1 mRNA processing / splicing [6]: does not upregulate
- EGFR and HER2 expression ([3]; 24 hours, RBF3 20 μM): only does so in the MDA-MB-468 line
- XBP1s and GRP78 expression (ER stress markers) ([3]; 24 hours, RBF3 20 μM): increased
- Akt phosphorylation [3, 13]: decreased
- ATF4 and CHOP expression [3, 14]: little upregulation
- concentrations that activate UPR / induce a similar level of ER stress [5]: millimolar concentrations
- Akt phosphorylation, wild type MEFs [7]: weakly suppressed
- ER stress response / UPR, wild type MEFs [7]: did not induce
- PARP cleavage, wild type MEFs [7]: induced PARP cleavage

Molecule: COc1ccc(C[C@H](N)C(=O)N[C@H]2[C@@H](O)[C@H](n3cnc4c(N(C)C)ncnc43)O[C@@H]2CO)cc1 [Puromycin, puromycin]
- DDA activation of the ER stress response when protein synthesis is inhibited ([5]; 8 hours): reduced

Molecule: O=CC[C@@H](O)[C@H](O)[C@H](O)CO [2-DOG, 2-deoxyglucose]
- ER stress response / UPR activation ([1]; 24 hours, DTT 2 mM): strongly activated UPR
- HER3 levels ([1]; 24 hours, RBF3 20 μM, DTT 2 mM): did not cause downregulation
- Akt phosphorylation ([1]; 24 hours, RBF3 20 μM, DTT 2 mM): did not cause downregulation
- PARP cleavage (cell death) ([1]; 24 hours, RBF3 20 μM, DTT 2 mM): did not increase cell death
- HER3 expression ([3]; 24 hours, 2-DOG 4 mM): did not cause downregulation
- PARP cleavage ([3]; 24 hours, 2-DOG 4 mM): did not increase cell death
- UPR activation ([3]; 24 hours, 2-DOG 4 mM): strongly activated UPR
- Akt phosphorylation [3, 13]: did not cause downregulation

Molecule: tunicamycin
- ATF4 and CHOP expression [1, 12]: more effectively than RBF3
- Akt phosphorylation, wild type MEFs [7]: markedly suppressed
- ER stress response / UPR, wild type MEFs [7]: induced a robust UPR
- PARP cleavage, wild type MEFs [7]: strongly upregulated
- CHOP, ATF4, and GRP78 upregulation in eIF2α[S51A] knock-in MEFs [7]: significantly blunted
- PARP cleavage or XBP1s upregulation, effect of S51A eIF2a mutation [7]: did not affect

Molecule: C/C=C(/C)C(=O)O[C@H]1C(C)=C2[C@H]([C@@H]1OC(=O)CCCCCCC)[C@@](C)(OC(C)=O)C[C@H](OC(=O)CCC)[C@@]1(O)[C@H]2OC(=O)[C@@]1(C)O [thapsigargin]
- XBP1s expression [1, 11]: more strongly than RBF3
- ATF4 and CHOP expression [1, 12]: more effectively than RBF3
- ATF4 and CHOP expression ([1]; thapsigargin 400 nM, tunicamycin 500 ng/ml, DTT 2 mM, listed as Thapsigargin): more strongly than RBF3
- ATF4 and CHOP expression [3, 14]: strongly upregulated
- PERK electrophoretic mobility ([3]; 24 hours, thapsigargin 400 nM): more strongly decreased
- Akt phosphorylation, wild type MEFs [7]: markedly suppressed
- ER stress response / UPR, wild type MEFs [7]: induced a robust UPR
- PARP cleavage, wild type MEFs [7]: strongly upregulated
- CHOP, ATF4, and GRP78 upregulation in eIF2α[S51A] knock-in MEFs [7]: significantly blunted
- PARP cleavage or XBP1s upregulation, effect of S51A eIF2a mutation [7]: did not affect

Molecule: CS(=O)(=O)CCNCc1ccc(-c2ccc3ncnc(Nc4ccc(OCc5cccc(F)c5)c(Cl)c4)c3c2)o1 [Lapatinib]
- concentration of RBF3 required to downregulate HER3 levels and Akt phosphorylation, on co-treatment [1, 15]: lowered
- CHOP expression, Lapatinib with RBF3 [8]: cooperated with RBF3 to upregulate
- RBF3-induced UPR with respect to GRP78, XBP1s, or ATF4 levels, with Lapatinib [8]: only weakly potentiated

Molecule: COc1cc2ncnc(Nc3ccc(F)c(Cl)c3)c2cc1OCCCN1CCOCC1 [Gefitinib]
- CHOP expression, combination with RBF3 [1, 15]: cooperated with RBF3 to upregulate
- concentration of RBF3 required to downregulate HER3 levels and Akt phosphorylation, on co-treatment [1, 15]: lowered

Molecule: O=S(O)CCCCSSCCCCSSCCCCS(=O)O [NSC624205]
- HER3 expression in EGFR or HER2 overexpressing T47D cells [9]: reduced HER3 expression to very low levels; also recorded: more sensitive to downregulation

Molecule: C[C@@H]1C[C@@H]([C@H](O)CC2CC(=O)NC(=O)C2)C(=O)[C@@H](C)C1 [CHX, cycloheximide]
- RBF3-mediated UPR on co-treatment with CHX ([1]; 2-16 hrs): rapidly and persistently blocked
- HER2 expression, RBF3 with CHX ([3]; 24 hour, 20 μM RBF3, 20 μM CHX): partially restored
- DDA-mediated downregulation of EGFR or HER3, with CHX ([5]; 8 hours, 20 μM RBF3, 20 μM CHX): did not overcome
- RBF3-induced PARP cleavage and Akt dephosphorylation, with CHX ([5]; 8 hours, 20 μM RBF3, 20 μM CHX): partly overcame
- DDA activation of the ER stress response when protein synthesis is inhibited ([5]; 8 hours): reduced
- CHX blockade of RBF3-induced PARP cleavage ([5]; 24 hour treatment): less apparent
